# In patent publication US7705016B2, “Regulation of food intake by modulation of long-chain fatty acyl-CoA levels in the hypothalamus” (Albert Einstein College of Medicine of Yeshiva University, priority 2003, dated 2010):
# Target: T1, CPT1 (Rattus norvegicus, UniProt P32198)
# T1 construct: CPT1 activity was measured in the particulate fraction of protein extracts from animals treated with ICV control injections; from tissue; host or cells: hypothalamus (arcuate nucleus) of male Sprague-Dawley rats, in vivo or ex vivo
# T1 sequence (P32198 2-773): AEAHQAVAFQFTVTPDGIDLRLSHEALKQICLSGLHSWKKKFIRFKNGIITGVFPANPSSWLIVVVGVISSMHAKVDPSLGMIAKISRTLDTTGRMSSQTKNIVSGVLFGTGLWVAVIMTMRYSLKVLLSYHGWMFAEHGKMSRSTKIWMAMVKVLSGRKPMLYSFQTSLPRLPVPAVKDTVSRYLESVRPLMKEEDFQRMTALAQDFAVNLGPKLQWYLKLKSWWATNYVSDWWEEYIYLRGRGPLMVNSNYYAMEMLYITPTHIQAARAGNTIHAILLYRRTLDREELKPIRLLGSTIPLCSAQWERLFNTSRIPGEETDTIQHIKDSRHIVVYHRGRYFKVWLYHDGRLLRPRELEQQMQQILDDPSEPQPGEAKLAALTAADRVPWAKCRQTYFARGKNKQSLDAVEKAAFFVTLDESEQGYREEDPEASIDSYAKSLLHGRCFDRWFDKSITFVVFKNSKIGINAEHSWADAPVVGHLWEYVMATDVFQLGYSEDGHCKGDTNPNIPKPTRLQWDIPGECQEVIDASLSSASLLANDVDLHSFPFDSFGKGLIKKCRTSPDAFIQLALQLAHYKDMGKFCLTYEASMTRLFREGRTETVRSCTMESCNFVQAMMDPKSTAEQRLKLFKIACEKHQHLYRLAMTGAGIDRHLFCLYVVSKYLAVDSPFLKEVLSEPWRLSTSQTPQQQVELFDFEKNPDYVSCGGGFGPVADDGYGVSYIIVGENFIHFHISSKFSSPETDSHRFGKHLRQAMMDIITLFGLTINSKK
# Test: CPT1 activity in arcuate nuclei and whole hypothalamus after ICV injection
# Format: in vivo
# Settings: after ICV administration
# Experimental: Surgical implantation of ICV cannulae was performed on day 1 (˜3 weeks prior to the in vivo study). Full recovery of body weight and food intake was achieved by day 7. Rats randomized for ribozyme treatment received an ICV injection of CPT1L-Ribo, CPT inhibitors or controls on day 17. The experimental group treated with TDGA received ICV injection of the inhibitor on day 21, 6 hr prior to the harvesting of brains. Panels B. and C. show quantitation of CPT1L (B) and CPT1M (C) mRNA by real-time PCR. RNA was purified from individual hypothalamic nuclei (PVN, LHA, and arcuate), which were obtained by micro punch technique 3 days after ICV injection of pTarget control (▪; N=4) or CPT1LRibo (□; N=5). Copy number of CPT1 mRNA is normalized to β-Actin copy number ×10^6. […] CPT1 activity was measured in the particulate fraction of protein extracts from animals treated with ICV control injections (▪; N=6, receiving aCSF+2% DMSO or Control Ribo), TDGA ( ?; N=6), or CPTL-Ribo (□; N=5). […] Levels of stearoyl-CoA (F) and oleyl-CoA (E) respectively were measured by HPLC in arcuate of rats injected ICV with control compound (▪; ST1340) or ST1326 (□).
# ICV catheters were implanted in male Sprague-Dawley rats by stereotaxic surgery (Obici et al., 2002a; Obici et al., 2001; Liu et al., 1998). […] Thus, we next measured CPT1 activity in ARC and in whole hypothalamus. […]
substance,measurement,value
"CPT1L-Ribo: plasmid (pTarget, CMV promoter) expressing a hammerhead ribozyme that specifically cleaves rat CPT1L mRNA, complexed to PEI for ICV injection (DNA CUGUACCAAAGAGCUGUAGAGUCCGUGAGGACGAAACGCCGCUCACAAUG)",CPT1 activity in ARC,marked decrease
